Among the data in ChEMBL document CHEMBL1142996 (J Med Chem, 2007) are Ki values, retold here.

Non-standard residues stand in square brackets, D forms with d. Residues, ends and D or L forms follow the SMILES beside them. Phe(4-NH2) = Nc1ccc(C[C@H](N)C(=O)O)cc1

For the assay, the target named is T1, Angiotensin II receptor (AT-1) type-1 (Rattus norvegicus, UniProt P29089+P25095).
T1 sequence (P29089 whole entry): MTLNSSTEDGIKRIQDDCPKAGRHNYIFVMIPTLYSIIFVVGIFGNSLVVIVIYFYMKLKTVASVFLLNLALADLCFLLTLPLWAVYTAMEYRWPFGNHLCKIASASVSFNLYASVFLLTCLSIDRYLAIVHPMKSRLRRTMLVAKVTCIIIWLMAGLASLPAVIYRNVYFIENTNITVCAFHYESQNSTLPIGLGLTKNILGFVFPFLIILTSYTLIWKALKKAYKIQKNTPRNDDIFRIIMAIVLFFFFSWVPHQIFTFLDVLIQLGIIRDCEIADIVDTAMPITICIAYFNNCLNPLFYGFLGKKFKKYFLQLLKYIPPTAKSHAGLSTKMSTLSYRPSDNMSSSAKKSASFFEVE
T1 sequence (P25095 whole entry): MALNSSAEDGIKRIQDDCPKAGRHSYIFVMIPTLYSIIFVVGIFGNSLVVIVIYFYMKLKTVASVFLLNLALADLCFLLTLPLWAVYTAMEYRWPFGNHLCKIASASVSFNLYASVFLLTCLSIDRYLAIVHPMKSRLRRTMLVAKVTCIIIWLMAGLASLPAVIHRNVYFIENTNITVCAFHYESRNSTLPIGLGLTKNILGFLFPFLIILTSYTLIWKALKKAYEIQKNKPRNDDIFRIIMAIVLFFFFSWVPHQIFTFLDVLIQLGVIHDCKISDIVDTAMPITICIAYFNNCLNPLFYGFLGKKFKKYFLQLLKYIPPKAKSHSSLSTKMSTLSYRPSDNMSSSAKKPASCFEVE
Nature of the assay: Displacement of [125I]Ang2 from AT1 receptor in rat liver membrane. The assay is classed as cell membranes. In general terms: In a radioligand displacement assay an active substance lowers the binding of a labelled ligand.
A word on the Ki: it is the dissociation constant of the complex between target and ligand, obtained from inhibition or displacement. A higher Ki goes with weaker binding. As for `O=C(N[C@@H](Cc1ccccc1)C(=O)O)c1cccc(Cc2cnc[nH]2)c1`, the Ki is greater than 10 µM.

For the molecule `O=C(N[C@@H](Cc1ccccc1)C(=O)O)c1cccc(Cn2ccnc2)c1`, the Ki was greater than 10 µM.

`O=C(O)[C@H](Cc1ccccc1)NC(=O)[C@@H]1CCCN1C(=O)c1cccc(Cc2cnc[nH]2)c1` gave a Ki greater than 10 µM. `N[C@@H](Cc1cnc[nH]1)C(=O)N1CCC[C@H]1C(=O)N[C@@H](Cc1ccccc1)C(=O)O` (H-His-Pro-Phe-OH) had an inhibition constant Ki of 1.598 µM. To `CC[C@H](C)[C@H](NC(=O)[C@@H]1CCCN1C(=O)[C@H](Cc1cnc[nH]1)NC(C)=O)C(=O)O` (Ac-His-Pro-Ile-OH) belongs greater than 10 µM; to `CC[C@@H](C)[C@H](NC(=O)c1cccc(Cn2ccnc2)c1)C(=O)O`, greater than 10 µM; to `CC(=O)N[C@@H](Cc1cnc[nH]1)C(=O)N1CCC[C@H]1C(=O)N[C@@H](Cc1ccccc1)C(=O)O` (Ac-His-Pro-Phe-OH), greater than 10 µM. On to `CC[C@H](C)[C@H](NC(=O)[C@@H]1CCCN1C(=O)[C@@H](N)Cc1cnc[nH]1)C(=O)O` (H-His-Pro-Ile-OH), for which the Ki is greater than 10 µM.

In the case of `CC[C@@H](C)[C@H](NC(=O)[C@@H]1CCCN1C(=O)c1cccc(Cc2cnc[nH]2)c1)C(=O)O`, the Ki is greater than 10 µM. To `CC[C@@H](C)[C@H](NC(=O)c1cccc(Cc2cnc[nH]2)c1)C(=O)O` belongs greater than 10 µM; to `O=C(O)[C@H](Cc1ccccc1)NC(=O)[C@@H]1CCCN1C(=O)c1cccc(Cn2ccnc2)c1`, greater than 10 µM. With `CC[C@@H](C)[C@H](NC(=O)[C@@H]1CCCN1C(=O)c1cccc(Cn2ccnc2)c1)C(=O)O`, the Ki was greater than 10 µM. To `CC[C@H](C)[C@H](NC(=O)[C@H](Cc1ccc(O)cc1)NC(=O)[C@@H](NC(=O)[C@H](CCCNC(=N)N)NC(=O)[C@@H](N)CC(=O)O)C(C)C)C(=O)N[C@@H](Cc1ccc(N)cc1)C(=O)N1CCC[C@H]1C(=O)N[C@@H](Cc1ccccc1)C(=O)O` (H-DRVYI[Phe(4-NH2)]PF-OH) belongs greater than 10 µM.
